In patent EP0726951B1, “MANUFACTURE AND USE OF POLYPEPTIDES TAGGED USING BINDING MOLECULES” (MEDICAL RESEARCH COUNCIL, priority 1993, dated 1995):

Columns and labels:
[1] = target: T1, calmodulin (Homo sapiens, UniProt P0DP23); assay: native gel autoradiography of calmodulin with radiolabelled melatonin; type: binding; settings: 15% polyacrylamide gel, 0.5mM CaCl2, no SDS
Procedure: In order to assess this, 1µl calmodulin (lmg/ml) was incubated with 1µCi 2-[^125I]-melatonin in 9µl TBSC and run on a 15% polyacrylamide gel. The gel was as the running gel of Laemmli (Nature 1970 220 680-685), but with 0.5mM CaCl2 and no SDS in both gel and buffer.

[2] = target: T1, calmodulin; settings: published value; cited from earlier work
[3] = target: T1, calmodulin; settings: cited from earlier work

Row | Compound | radioactive band of complex with calmodulin [1] | half-life of the calmodulin-melatonin complex [2] | Ka ([3]; affinity for calmodulin) | Kd ([3]; binds calmodulin)
1 | COc1ccc2[nH]c([125I])c(CCNC(C)=O)c2c1 [2-[^125I]-melatonin] | no radioactive band was detected | – | – | –
2 | COc1ccc2[nH]cc(CCNC(C)=O)c2c1 [melatonin] | no complex is detected | 2 min | – | –
3 | mastoparan | – | – | 3.3e+09 M⁻¹ | 0.3 nM
